39 compounds from patent publication US5811439A, “Thiazolidinedione derivatives, method for preparing the derivatives and pharmaceutical compositions containing same” (Senga Pharmaceutical Laboratory Inc., priority 1995, dated 1998) can be followed below.

The subject of the experiment is 3T3-L1 cells. Briefly: Glucose-uptake test (2-DOG uptake) in 3T3-L1 cells. The experiment is classed as cell-based. The note with it: cpm divided by amount of proteins; for activity at 50 µg/mL: Mus musculus, 3T3-L1, 24 h, 50 μg/ml, read-out: 2-DOG Uptake (%) at a concentration of 50 μg/ml. The method, then:
Glucose-uptake tests as a means for screening compounds for the effect of reducing the blood sugar level were carried out according to the following procedures. 1) Cell: The following cells were used. 3T3-L1 (purchased from Dainippon Pharmaceutical Co. Ltd.) 2) Reagents: The following reagents were used. DMEM (GIBCO); FBS (GIBCO); […] DMSO: dimethylsulfoxide (Wako Pure Chemical Co., Ltd.); ACS2 (Amersham); urea (Wako Pure Chemical Co., Ltd.); protein-determining kit (Bio Rad Code No.). 3) Instrument: The following instrument was used in the test. 24-well plate (Falcon) 3T3-L1 cells were dispersed in a 10% FBS-containing DME medium in a cell concentration of 10000 cells/ml, the resulting cell suspension was dispensed into a 24-well plate in an amount of 1 ml per well and the cells were cultivated in a 5% CO2 -incubator at 37° C. for 5 days. After soaking up the medium in the wells, the plate was washed once with PBS in an amount of 2 ml/well. […] The cells were cultivated in a sample compound-containing medium at 37° C. for 24 hours in a 5%-CO2 -incubator. After the cultivation, the medium was soaked up and the plate was washed three times with 2 ml/well each of PBS. […] After washing with 2 ml/well of PBS, the PBS was sufficiently soaked up. […] The lysate was also inspected for the amount of proteins using 0.2 ml out of the rest of the lysate, according to the microassay method using a protein-determining kit.

Regarding `Cc1c(C)c2c(c(C)c1O)CCC(C)(COc1ccc(CC3SC(=O)NC3=O)cc1)O2` (racemic) [CS-045, (±)5-[4(6-hydroxy-2,5,7,8-tetramethylchroman-2-yl-methoxy)benzyl2,4-thazolidinedione, reference compound], the activity at 50 µg/mL is 172%. The same measure, in the same setting: for `O=C1NC(=O)C(=Cc2cccc3c2ccn3Cc2ccccc2)S1` [Example 2, 5-(1-benzylindol-4-yl)methylene-2,4-thiazolidinedione] the value was 182%; for `O=C1NC(=O)C(=Cc2cccc3c2ccn3Cc2ccncc2)S1` [Example 5, 5-[1-(4-picolyl)indol-4-yl]methylene-2,4-thiazolidinedione], 227%; for `O=C1NC(=O)C(Cc2cccc3c2ccn3Cc2ccncc2)S1` (stereo not drawn) [Example 6, 5-[1-(4-picolyl)indol-4-yl]methyl-2,4-thiazolidinedione], 166%.

On to `COC(=O)c1ccc(Cn2ccc3c(C=C4SC(=O)NC4=O)cccc32)cc1` [Example 8, 5-[1-(4-methoxycarbonylbenzyl)indol-4-yl]methylene-2,4-thiazolidinedione], for which the activity at 50 µg/mL was 172%.

Turning to `COC(=O)c1ccc(Cn2ccc3c(CC4SC(=O)NC4=O)cccc32)cc1` (stereo not drawn) [Example 9, 5-[1-(4-methoxycarbonylbenzyl)indol-4-yl]methyl-2,4-thiazolidinedione], the activity at 50 µg/mL was 180%. Consider `O=C1NC(=O)C(Cc2cccc3c2ccn3C(=O)Cc2ccccc2)S1` (stereo not drawn) [Example 13, 5-(1-phenylacetylindol-4-yl)methyl-2,4-thiazolidinedione], for which the activity at 50 µg/mL came out at 150%.

For `O=C1NC(=O)C(Cc2cccc3c2ccn3S(=O)(=O)c2ccc(F)cc2)S1` (stereo not drawn) [Example 21, 5-[1-(4-fluorobenzenesulfonyl)indol-4-yl]-methyl-2,4-thiazolidinedione], the activity at 50 µg/mL was 162%. Still for that read-out and setting: the figure for `Cc1ccc(S(=O)(=O)n2ccc3c(CC4SC(=O)NC4=O)cccc32)cc1` (stereo not drawn) [Example 24, 5-[1-(p-toluenesulfonyl)indol-4-yl]-methyl-2,4-thiazolidinedione] is 186%; for `Cc1oc(-c2ccccc2)nc1Cn1ccc2c(C=C3SC(=O)NC3=O)cccc21` [Example 31, 5-{1-[(5-methyl-2-phenyloxazol-4-yl)methyl]indol-4-yl}methylene-2,4-thiazolidine-dione] it is 208%. As to `Cc1oc(-c2ccccc2)nc1Cn1ccc2c(CC3SC(=O)NC3=O)cccc21` (stereo not drawn) [Example 32, 5-{1-[(5-methyl-2-phenyloxazol-4-yl)methyl]indol-4-yl}methyl-2,4-thiazolidinedione], the activity at 50 µg/mL stood at 215%.

Take `O=C1NC(=O)C(Cc2cccc3c2ccn3Cc2cccc(F)c2)S1` (stereo not drawn) [Example 50, 5-[1-(3-fluorobenzyl)indol-4-yl]-methyl-2,4-thiazolidinedione]: the activity at 50 µg/mL is 201%. Take `O=C1NC(=O)C(Cc2cccc3c2ccn3Cc2cccc(F)c2F)S1` (stereo not drawn) [Example 55, 5-[1-(2,3-difluorobenzyl)indol-4-yl]-methyl-2,4-thiazolidinedione]: the activity at 50 µg/mL turned out to be 180%. Consider `O=C1NC(=O)C(Cc2cccc3c2ccn3Cc2cc(F)ccc2F)S1` (stereo not drawn) [Example 62, 5-[1-(2,5-difluorobenzyl)indol-4-yl]-methyl-2,4-thiazolidinedione], for which the activity at 50 µg/mL was 192%. Turning to `O=C1NC(=O)C(Cc2cccc3c2ccn3Cc2ccc(F)c(F)c2)S1` (stereo not drawn) [Example 68, 5-[1-(3,4-difluorobenzyl)indol-4-yl]-methyl-2,4-thiazolidinedione], the activity at 50 µg/mL was determined as 202%. Turning to `O=C1NC(=O)C(Cc2cccc3c2ccn3Cc2cc(F)cc(F)c2)S1` (stereo not drawn) [Example 71, 5-[1-(3,5-difluorobenzyl)indol-4-yl]-methyl-2,4-thiazolidinedione], the activity at 50 µg/mL amounted to 250%. The same measure, in the same setting: for `O=C1NC(=O)C(Cc2cccc3c2ccn3Cc2ccccc2C(F)(F)F)S1` (stereo not drawn) [Example 74, 5-[1-(2-trifluoromethylbenzyl)indol-4-yl]methyl-2,4-thiazolidinedione] the value was 210%.

Regarding `O=C1NC(=O)C(Cc2cccc3c2ccn3Cc2cccc(C(F)(F)F)c2)S1` (stereo not drawn) [Example 77, 5-[1-(3-trifluoromethylbenzyl)indol-4-yl]methyl-2,4-thiazolidinedione], the activity at 50 µg/mL stood at 185%. Consider `O=C1NC(=O)C(Cc2cccc3c2ccn3Cc2ccc(C(F)(F)F)cc2)S1` (stereo not drawn) [Example 80, 5-[1-(4-trifluoromethylbenzyl)indol-4-yl]methyl-2,4-thiazolidinedione], for which the activity at 50 µg/mL was 210%.

As to `O=C1NC(=O)C(Cc2cccc3c2ccn3Cc2ccc(C(F)(F)F)cc2C(F)(F)F)S1` (stereo not drawn) [Example 83, 5-{1-[2,4-bis(trifluoromethyl)-benzyl]indol-4-yl}methyl-2,4-thiazolidine-dione], the activity at 50 µg/mL is 199%. Regarding `COc1ccccc1Cn1ccc2c(CC3SC(=O)NC3=O)cccc21` (stereo not drawn) [Example 86, 5-[1-(2-methoxybenzyl)indol-4-yl]methyl-2,4-thiazolidinedione], the activity at 50 µg/mL is 161%. The same measure, in the same setting: the figure for `COc1cccc(Cn2ccc3c(CC4SC(=O)NC4=O)cccc32)c1` (stereo not drawn) [Example 89, 5-[1-(3-methoxybenzyl)indol-4-yl]methyl-2,4-thiazolidinedione] is 185%; for `COc1ccc(Cn2ccc3c(CC4SC(=O)NC4=O)cccc32)cc1OC` (stereo not drawn) [Example 92, 5-[1-(3,4-dimethoxybenzyl)indol-4-yl]methyl-2,4-thiazolidinedione] it is 190%; for `COc1ccc(OC)c(Cn2ccc3c(CC4SC(=O)NC4=O)cccc32)c1` (stereo not drawn) [Example 98, 5-[1-(2,5-dimethoxybenzyl)indol-4-yl]methyl-2,4-thiazolidinedione] it is 180%. Same read-out and setting: the figure for `N#Cc1cccc(Cn2ccc3c(CC4SC(=O)NC4=O)cccc32)c1` (stereo not drawn) [Example 101, 5-[1-(3-cyanobenzyl)indol-4-yl]methyl-2,4-thiazolidinedione] is 240%; for `N#Cc1ccc(Cn2ccc3c(CC4SC(=O)NC4=O)cccc32)cc1` (stereo not drawn) [Example 104, 5-[1-(4-cyanobenzyl)indol-4-yl]methyl-2,4-thiazolidinedione] it is 290%; for `O=C1NC(=O)C(Cc2cccc3c2ccn3Cc2ccc3c(c2)OCO3)S1` (stereo not drawn) [Example 112, 5-(1-piperonylindole-4-yl)methyl-2,4-thiazolidinedione] it is 155%. The same measure, in the same setting: the figure for `Cc1cccc(Cn2ccc3c(CC4SC(=O)NC4=O)cccc32)c1` (stereo not drawn) [Example 115, 5-[1-(3-methylbenzyl)indol-4-yl]methyl-2,4-thiazolidinedione] is 162%.

For `O=C1NC(=O)C(Cc2cccc3c2ccn3CCc2ccccc2)S1` (stereo not drawn) [Example 121, 5-(1-phenethylindol-4-yl)methyl-2,4-thiazolidinedione], the activity at 50 µg/mL worked out at 218%.

On to `O=C1NC(=O)C(Cc2cccc3c2ccn3Cc2ccccn2)S1` (stereo not drawn) [Example 133, 5-[1-(2-picolyl)indol-4-yl]methyl-2,4-thiazolidinedione], for which the “2-DOG Uptake (%) at a concentration of 50 μg/ml” value (24 hours) is given as 240%. As for `O=C1NC(=O)C(Cc2cccc3c2ccn3CCc2cccs2)S1` (stereo not drawn) [Example 139, 5-{1-[2-(thien-2-yl)ethyl]indol-4-yl}methyl-2,4-thiazolidinedione], the activity at 50 µg/mL turned out to be 153%. Consider `Cc1nc(Cn2ccc3c(CC4SC(=O)NC4=O)cccc32)cs1` (stereo not drawn) [Example 142, 5-{1-[(2-methylthiazol-4-yl)methyl]indol-4-yl}methyl-2,4-thiazolidinedione], for which the activity at 50 µg/mL was 160%. For the compound `O=C1NC(=O)C(=Cc2cccc3c2ccn3Cc2ccc3ccccc3n2)S1` [Example 147, 5-{1-[(quinol-2-yl)methyl]indol-4-yl}methylene-2,4-thiazolidinedione], the activity at 50 µg/mL amounted to 156%. For the compound `O=C1NC(=O)C(Cc2cccc3c2ccn3CC2CCc3ccccc3N2)S1` (stereo not drawn) [Example 148, 5-{1-[(1,2,3,4-tetrahydroquinol-2-yl)methyl]indol-4-yl}methyl-2,4-thiazolidinedione], the activity at 50 µg/mL was found to be 153%.

Take `O=C1NC(=O)C(Cc2cccc3[nH]ccc23)S1` (stereo not drawn) [Example 150, 5-(indol-4-yl)methyl-2,4-thiazolidinedione]: the activity at 50 µg/mL turned out to be 191%. As to `CCCCCCn1ccc2c(C=C3SC(=O)NC3=O)cccc21` [Example 155, 5-(1-hexylindol-4-yl)methylene-2,4-thiazolidinedione], the activity at 50 µg/mL was found to be 233%. Still for that read-out and setting: for `CCC(CC)Cn1ccc2c(C=C3SC(=O)NC3=O)cccc21` [Example 158, 5-[1-(2-ethylbutyl)indol-4-yl]methylene-2,4-thiazolidinedione] the value was 221%; for `CC(C)=CCCn1ccc2c(CC3SC(=O)NC3=O)cccc21` (stereo not drawn) [Example 165, 5-[1-(4-methyl-3-pentenyl)indol-4-yl]methyl-2,4-thiazolidinedione], 285%. Still for that read-out and setting: the figure for `CC#CCn1ccc2c(CC3SC(=O)NC3=O)cccc21` (stereo not drawn) [Example 168, 5-[1-(2-butynyl)indol-4-yl]methyl-2,4-thiazolidinedione] is 172%.
